Data published in patent US10717746B2, “Chemical compounds” (ASTRAZENECA AB, priority 2015, dated 2020).

How the values were obtained:
[1] = target: T1, CDK9/CycT1 (Homo sapiens (Human), UniProt P50750); experiment: CDK9 kinase assay, high ATP concentration (5 mM ATP); assay type: biochemical; conditions: 1.5 nM CDK9, read-out: CDK9 High ATP conc. (IC50)
Procedure, shortened: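 Caliper mobility-shift read-out of phosphorylated vs unphosphorylated FITC-peptide (1.5 μM), giving percent turnover. Final 1.5 nM CDK9/CycT1 and 5 mM ATP in 50 mM HEPES pH 7.2, 1 mM DTT, 10 mM MgCl2; compound preincubated 15 min, reaction 90 min at 25° C, stopped with EDTA.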

[2] = test system: MV411 cells; experiment: MV411 caspase activity assay (Caspase-Glo 3/7); assay type: cell-based; conditions: Homo sapiens, MV4-11, 6 h, 6-hr treatment, caspase 3/7 induction
Procedure, shortened: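 MV411 AML cells (3000/well) were plated overnight, then treated with compound for 6 h at 37 °C. Caspase-3/7 activity was read as luminescence after 30 min with Caspase-Glo 3/7 reagent at room temperature.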

[3] = target: T1, CDK9/CycT1; experiment: CDK9 kinase assay, ATP concentration at Km (mobility shift, Caliper LC3000); assay type: biochemical; conditions: 6 μM ATP, 3 nM CDK9/CycT1; read-out: CDK9 ATP conc. at Km (IC50)
Procedure, shortened: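 3 nM CDK9/CycT1 with 6 µM ATP and 1.5 µM FITC-peptide (HEPES pH 7.2) was preincubated with compound 15 min at 25 °C. Reaction started with 10 mM MgCl2 and ran 90 min at 25 °C. Turnover was measured by mobility-shift separation of phosphorylated and unphosphorylated peptide.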

[4] = test system: phosphorylation of RNA Polymerase II (RNAPII) at the Ser2 site in MCF7 cells; experiment: MCF7 pSer2 RNAPII MOA assay (immunofluorescence); assay type: cell-based; conditions: Homo sapiens, MCF7, 6 h, 6-hr treatment, read-out: p-Ser 2 RNAPII (IC50)
Procedure, shortened: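 MCF7 cells (2500/well), plated overnight, were treated for 6 h at 37° C. with CDK9 inhibitors in a 7-point dose response from 3 μM to 0.004 μM. Cells were then fixed, permeabilized and immunostained for Ser2-phospho RNAPII with Alexa Fluor 488 secondary plus DAPI. Per-well phosphorylation was read by microplate cytometry.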

T1 sequence (P50750 whole entry): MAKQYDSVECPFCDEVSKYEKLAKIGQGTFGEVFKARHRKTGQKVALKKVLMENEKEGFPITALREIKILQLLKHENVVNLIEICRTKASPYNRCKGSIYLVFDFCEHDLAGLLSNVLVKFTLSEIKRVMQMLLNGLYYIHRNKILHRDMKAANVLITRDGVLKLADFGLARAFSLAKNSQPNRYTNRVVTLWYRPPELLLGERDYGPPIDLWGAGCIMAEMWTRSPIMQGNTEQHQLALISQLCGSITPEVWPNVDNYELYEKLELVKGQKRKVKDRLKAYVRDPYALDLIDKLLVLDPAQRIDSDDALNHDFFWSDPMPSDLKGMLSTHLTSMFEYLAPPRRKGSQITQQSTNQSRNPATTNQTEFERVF
T1 sequence (O60563 whole entry partner): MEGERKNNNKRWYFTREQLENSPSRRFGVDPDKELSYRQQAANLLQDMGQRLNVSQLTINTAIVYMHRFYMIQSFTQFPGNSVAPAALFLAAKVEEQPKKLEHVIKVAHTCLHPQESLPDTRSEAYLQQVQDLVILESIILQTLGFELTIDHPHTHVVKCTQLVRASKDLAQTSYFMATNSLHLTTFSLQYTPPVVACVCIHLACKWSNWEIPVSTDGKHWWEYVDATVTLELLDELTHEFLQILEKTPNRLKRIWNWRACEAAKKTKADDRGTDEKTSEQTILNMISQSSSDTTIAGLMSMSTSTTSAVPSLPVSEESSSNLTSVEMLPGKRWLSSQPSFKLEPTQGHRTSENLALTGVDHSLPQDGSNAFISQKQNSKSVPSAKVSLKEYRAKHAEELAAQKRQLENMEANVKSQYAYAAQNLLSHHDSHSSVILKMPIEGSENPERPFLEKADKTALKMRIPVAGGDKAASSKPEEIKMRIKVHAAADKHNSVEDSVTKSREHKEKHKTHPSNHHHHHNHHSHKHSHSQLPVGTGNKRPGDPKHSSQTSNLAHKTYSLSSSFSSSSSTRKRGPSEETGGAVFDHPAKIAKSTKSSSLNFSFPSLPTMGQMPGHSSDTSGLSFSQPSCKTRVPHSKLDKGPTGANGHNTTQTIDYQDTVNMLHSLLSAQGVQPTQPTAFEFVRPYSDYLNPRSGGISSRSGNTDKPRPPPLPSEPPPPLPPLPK

IC50 [1] [nM] | IC50 [2] [nM] | IC50 [3] [nM] | IC50 [4] [nM] | Structure (SMILES)
148 | 228 | < 3 | 292 | CC1(C)CCn2ncc(-c3cc(NC(=O)[C@H]4CCC[C@@H](N)C4)ncc3F)c2C1 [Example 51a, (1S,3R)-3-amino-N-(4-(5,5-dimethyl-4,5,6,7-tetrahydropyrazolo[1,5-a]pyridin-3-yl)-5-fluoropyridin-2-yl)cyclohexanecarboxamide]
< 3 | 13 | < 3 | 12 | CC1(C)Cc2c(-c3cc(NC(=O)[C@H]4CCC[C@@H](NC(=O)[C@H]5C[C@@H](O)C5)C4)ncc3Cl)cnn2C1 [Example 53, (1S,3R)—N-(5-chloro-4-(5,5-dimethyl-5,6-dihydro-4H-pyrrolo[1,2-b]pyrazol-3-yl)pyridin-2-yl)-3-(cis-3-hydroxycyclobutanecarboxamido)cyclohexanecarboxamide]
777 | 431 | 10 | 455 | CC1(C)Cc2c(-c3cc(NC(=O)[C@H]4CCC[C@@H](N)C4)ncc3F)cnn2C1 [Example 54, (1S,3R)-3-amino-N-(4-(5,5-dimethyl-5,6-dihydro-4H-pyrrolo[1,2-b]pyrazol-3-yl)-5-fluoropyridin-2-yl)cyclohexane-1-carboxamide]
< 3 | 10 | < 3 | 7 | CC1(C)Cc2c(-c3cc(NC(=O)[C@H]4CCC[C@@H](NC(=O)C5(O)CC5)C4)ncc3F)cnn2C1 [Example 55, (1S,3R)—N-(4-(5,5-dimethyl-5,6-dihydro-4H-pyrrolo[1,2-b]pyrazol-3-yl)-5-fluoropyridin-2-yl)-3-(1-hydroxycyclopropanecarboxamido)cyclohexanecarboxamide]
4 | 22 | < 3 | 29 | CC1(C)Cc2ncc(-c3cc(NC(=O)[C@H]4CCC[C@@H](NC(=O)C5(O)CC5)C4)ncc3Cl)n2C1 [Example 56, (1S,3R)—N-(5-chloro-4-(6,6-dimethyl-6,7-dihydro-5H-pyrrolo[1,2-a]imidazol-3-yl)pyridin-2-yl)-3-(1-hydroxycyclopropanecarboxamido)cyclohexanecarboxamide]
4 | 53 | < 3 | 28 | CC1(C)Cc2ncc(-c3cc(NC(=O)[C@H]4CCC[C@@H](NC(=O)C5COC5)C4)ncc3Cl)n2C1 [Example 57, N-((1R,3S)-3-((5-chloro-4-(6,6-dimethyl-6,7-dihydro-5H-pyrrolo[1,2-a]imidazol-3-yl)pyridin-2-yl)carbamoyl)cyclohexyl)oxetane-3-carboxamide]
41 | 76 | < 3 | 17 | CC1(C)Cc2ncc(-c3cc(NC(=O)[C@H]4C[C@@H](O)C4)ncc3Cl)n2C1 [Example 58, cis-N-(5-chloro-4-(6,6-dimethyl-6,7-dihydro-5H-pyrrolo[1,2-a]imidazol-3-yl)pyridin-2-yl)-3-hydroxycyclobutanecarboxamide]
51 | 159 | < 3 | 104 | CC(=O)N[C@@H]1CCC[C@H](C(=O)Nc2cc(-c3cnn4c3CCCC4)c(F)cn2)C1 [Example 63, (1S,3R)-3-acetamido-N-(5-fluoro-4-(4,5,6,7-tetrahydropyrazolo[1,5-a]pyridin-3-yl)pyridin-2-yl)cyclohexanecarboxamide]
23 | 183 | < 3 | 92 | CC(=O)N[C@@H]1CCC[C@H](C(=O)Nc2cc(-c3cnn4c3CCCCC4)c(Cl)cn2)C1 [Example 66, (1S,3R)-3-acetamido-N-(5-chloro-4-(5,6,7,8-tetrahydro-4H-pyrazolo[1,5-a]azepin-3-yl)pyridin-2-yl)cyclohexanecarboxamide]

Second part, the molecule before the results:

Structure (SMILES) | IC50 [1] [nM] | IC50 [2] [nM] | IC50 [3] [nM] | IC50 [4] [nM]
O=C(Nc1cc(-c2cnn3c2CCCC3)c(Cl)cn1)[C@H]1CCC[C@@H](NC(=O)[C@H]2CCCO2)C1 [Example 36, (R)—N-((1R,3S)-3-((5-chloro-4-(4,5,6,7-tetrahydropyrazolo[1,5-a]pyridin-3-yl)pyridin-2-yl)carbamoyl)cyclohexyl)tetrahydrofuran-2-carboxamide] | 39 | 104 | < 3 | 38
C[C@H](O)C(=O)N[C@@H]1CCC[C@H](C(=O)Nc2cc(-c3cnn4c3CCCC4)c(Cl)cn2)C1 [Example 37, (1S,3R)—N-(5-chloro-4-(4,5,6,7-tetrahydropyrazolo[1,5-a]pyridin-3-yl)pyridin-2-yl)-3-((S)-2-hydroxypropanamido)cyclohexanecarboxamide] | 38 | 177 | < 3 | 149
O=C(Nc1cc(-c2cnn3c2CCCC3)c(Cl)cn1)[C@H]1CCC[C@@H](NC(=O)[C@H]2CCOC2)C1 [Example 38, (S)—N-((1R,3S)-3-((5-chloro-4-(4,5,6,7-tetrahydropyrazolo[1,5-a]pyridin-3-yl)pyridin-2-yl)carbamoyl)cyclohexyl)tetrahydrofuran-3-carboxamide] | 28 | 139 | < 3 | 123
CC(=O)N[C@@H]1CCC[C@H](C(=O)Nc2cc(-c3cnn4c3CC(C)(C)C4)c(C#N)cn2)C1 [Example 39, (1S,3R)-3-acetamido-N-(5-cyano-4-(5,5-dimethyl-5,6-dihydro-4H-pyrrolo[1,2-b]pyrazol-3-yl)pyridin-2-yl)cyclohexanecarboxamide] | 62 | 145 | < 3 | 147
CC(=O)N[C@@H]1CCC[C@H](C(=O)Nc2cc(-c3cnn4c3CC(C)C4)c(Cl)cn2)C1 (stereo partly drawn) [Example 40, (1S,3R)-3-acetamido-N-(5-chloro-4-(5-methyl-5,6-dihydro-4H-pyrrolo[1,2-b]pyrazol-3-yl)pyridin-2-yl)cyclohexanecarboxamide] | 28 | 67 | < 3 | 57
CC(=O)N[C@@H]1CCC[C@H](C(=O)Nc2cc(-c3cnn4c3CC(C)(C)CC4)ccn2)C1 [Example 44, (1S,3R)-3-acetamido-N-(4-(5,5-dimethyl-4,5,6,7-tetrahydropyrazolo[1,5-a]pyridin-3-yl)pyridin-2-yl)cyclohexanecarboxamide] | 8 | 39 | < 3 | 48
CC1(C)Cc2c(-c3cc(NC(=O)[C@H]4CCC[C@@H](NC(=O)[C@@H]5CCCO5)C4)ncc3Cl)cnn2C1 [Example 45, (S)—N-((1R,3S)-3-((5-chloro-4-(5,5-dimethyl-5,6-dihydro-4H-pyrrolo[1,2-b]pyrazol-3-yl)pyridin-2-yl)carbamoyl)cyclohexyl)tetrahydrofuran-2-carboxamide] | < 4 | 8 | < 3 | 12
CC1(C)Cc2c(-c3cc(NC(=O)[C@H]4CCC[C@@H](NC(=O)[C@H]5CCCO5)C4)ncc3Cl)cnn2C1 [Example 46, (R)—N-((1R,3S)-3-((5-chloro-4-(5,5-dimethyl-5,6-dihydro-4H-pyrrolo[1,2-b]pyrazol-3-yl)pyridin-2-yl)carbamoyl)cyclohexyl)tetrahydrofuran-2-carboxamide] | < 4 | 12 | < 3 | 9
CC(=O)N[C@@H]1CC[C@H](C(=O)Nc2cc(-c3cnn4c3CC(C)(C)C4)c(Cl)cn2)C1 [Example 48, (1S,3R)-3-acetamido-N-(5-chloro-4-(5,5-dimethyl-5,6-dihydro-4H-pyrrolo[1,2-b]pyrazol-3-yl)pyridin-2-yl)cyclopentanecarboxamide] | 3 | 15 | < 3 | 40
CC(=O)N[C@@H]1CCC[C@H](C(=O)Nc2cc(-c3nnn4c3CCCC4)c(Cl)cn2)C1 [Example 49, (1S,3R)-3-acetamido-N-(5-chloro-4-(4,5,6,7-tetrahydro-[1,2,3]triazolo[1,5-a]pyridin-3-yl)pyridin-2-yl)cyclohexanecarboxamide] | 4400 | 7980 | 39 | > 2870
CC(=O)N[C@@H]1CCC[C@H](C(=O)Nc2cc(-c3cnc4n3CC(C)(C)C4)c(F)cn2)C1 [Example 50, (1S,3R)-3-acetamido-N-(4-(6,6-dimethyl-6,7-dihydro-5H-pyrrolo[1,2-a]imidazol-3-yl)-5-fluoropyridin-2-yl)cyclohexanecarboxamide] | 5 | 26 | < 3 | 19
CC(=O)N[C@@H]1CCC[C@H](C(=O)Nc2cc(-c3cnn4c3CC(C)(C)CC4)c(F)cn2)C1 [Example 51, (1S,3R)-3-acetamido-N-(4-(5,5-dimethyl-4,5,6,7-tetrahydropyrazolo[1,5-a]pyridin-3-yl)-5-fluoropyridin-2-yl)cyclohexanecarboxamide] | < 3 | 15 | < 3 | 10
